We go through ten compounds from ChEMBL document CHEMBL3739426, “Synthesis and biological evaluation of novel 2-isoxazoline fused cyclopentane derivatives as potential antimicrobial and anticancer agents” (Medchemcomm, 2015).

One assay deals with Bacillus subtilis. The assay is described as follows: Antimicrobial activity against Bacillus subtilis by cup plate diffusion method. It is filed as functional.
The next assay deals with Priestia megaterium. Put plainly: Antimicrobial activity against Bacillus megaterium by cup plate diffusion method. Type of assay: functional.
The test system of another assay is Escherichia coli. The assay is described as follows: Antimicrobial activity against Escherichia coli by cup plate diffusion method. It is filed as functional.
The test system of the next assay is Pseudomonas sp. The assay is described as follows: Antimicrobial activity against Pseudomonas sp. by cup plate diffusion method. It is filed as functional.
The test system of another assay is Candida albicans. The assay is described as follows: Antimicrobial activity against Candida albicans by cup plate diffusion method. It is filed as functional.
A further assay deals with HT-29. The assay is described as follows: Cytotoxicity against human HT-29 cells after 48 hrs by MTT assay. It is filed as functional, cell-based. The following applies: HT-29, 48 h.
A further assay concerns HeLa. Put plainly: Cytotoxicity against human HeLa cells after 48 hrs by MTT assay. Type of assay: functional, cell-based.
The test system of the next assay is MCF7. The assay is described as follows: Cytotoxicity against human MCF7 cells after 48 hrs by MTT assay. It is filed as functional, cell-based. The following applies: MCF7, 48 h.
The test system of a further assay is A549. The assay is described as follows: Cytotoxicity against human A549 cells after 48 hrs by MTT assay. The following applies: A549, 48 h. Type of assay: functional, cell-based.
The nature of assay [1]: Cytotoxicity against human PC3 cells after 48 hrs by MTT assay. Type of assay: functional, cell-based. As to conditions: PC-3, 48 h.

Converted amounts (≈) assume the structure as drawn.

Consider `COC(=O)[C@H]1C[C@@H](C(=O)OC)[C@H]2ON=C(c3ccc4ccccc4c3)[C@H]21`, for which the MIC against Bacillus subtilis, with Priestia megaterium, with Escherichia coli, against Pseudomonas sp. and in the assay with Candida albicans was more than 100 µg/mL each time. For the same compound, the IC50 (in the assay on HT-29; in the assay with HeLa; in the assay on MCF7; in the assay with A549; in assay [1]) was more than 50 µg/mL in each case.
Regarding `O=C(O)[C@H]1C[C@@H](C(=O)O)[C@H]2ON=C(c3ccc(Cl)cc3)[C@H]21`, the MIC with Bacillus subtilis is 60 µg/mL (≈ 194 µM); in the assay on Priestia megaterium, 30 µg/mL (≈ 96.9 µM); in the assay with Escherichia coli, more than 100 µg/mL; against Pseudomonas sp. it was more than 100 µg/mL; in the assay on Candida albicans it was more than 100 µg/mL. The IC50 in the assay on HT-29 is more than 50 µg/mL; in the assay with HeLa, 19 µg/mL (≈ 61.3 µM); in the assay with MCF7, 28.5 µg/mL (≈ 92 µM); in the assay on A549 it was 30 µg/mL (≈ 96.9 µM); in assay [1], more than 50 µg/mL.
For `COC(=O)[C@H]1C[C@@H](C(=O)OC)[C@H]2ON=C(c3ccc(OC)cc3)[C@H]21`, the MIC against Bacillus subtilis, in the assay with Priestia megaterium, against Escherichia coli, in the assay on Pseudomonas sp. and against Candida albicans was more than 100 µg/mL throughout. In addition, the IC50 in the assay on HT-29 is 28.9 µg/mL (≈ 86.7 µM); with HeLa, more than 50 µg/mL; with MCF7, more than 50 µg/mL; in the assay on A549, more than 50 µg/mL; in assay [1], more than 50 µg/mL.
On to `COC(=O)[C@H]1C[C@@H](C(=O)OC)[C@H]2ON=C(c3ccc(OC)c(OC)c3)[C@H]21`, for which the MIC in the assay with Bacillus subtilis, in the assay with Priestia megaterium, in the assay on Escherichia coli, in the assay with Pseudomonas sp. and in the assay with Candida albicans was more than 100 µg/mL in each case. For the same compound, the IC50 (in the assay with HT-29; with HeLa; in the assay with MCF7; in the assay with A549; in [1]) was more than 50 µg/mL each time.
For `OC[C@@H]1C[C@H](CO)[C@@H]2C(c3ccc(F)cc3)=NO[C@H]12`, the MIC with Bacillus subtilis, with Priestia megaterium, in the assay on Escherichia coli, in the assay on Pseudomonas sp. and against Candida albicans was more than 100 µg/mL in each case. For the same compound, the IC50 in the assay with HT-29 was 17.8 µg/mL (≈ 67.1 µM); with HeLa it was more than 50 µg/mL; in the assay on MCF7, more than 50 µg/mL; in the assay on A549, 31.1 µg/mL (≈ 117 µM); in assay [1], more than 50 µg/mL.
As to `COC(=O)[C@H]1C[C@@H](C(=O)OC)[C@H]2ON=C(c3ccc(C#N)cc3)[C@H]21`, the MIC against Bacillus subtilis, against Priestia megaterium, in the assay with Escherichia coli, in the assay with Pseudomonas sp. and against Candida albicans was more than 100 µg/mL throughout. The IC50 (in the assay on HT-29; in the assay on HeLa; with MCF7; in the assay with A549; in [1]) was more than 50 µg/mL throughout.
Regarding `COc1cc([C@@H]2c3cc4c(cc3[C@@H](O[C@@H]3O[C@@H]5CO[C@@H](C)O[C@H]5[C@H](O)[C@H]3O)[C@H]3COC(=O)[C@H]23)OCO4)cc(OC)c1O` [ETOPOSIDE], the IC50 in the assay on HT-29 turned out to be 4.21 µg/mL (≈ 7.15 µM); in the assay with HeLa it was 2.35 µg/mL (≈ 3.99 µM); in the assay with MCF7, 11.9 µg/mL (≈ 20.3 µM); with A549, 8.9 µg/mL (≈ 15.1 µM); in [1] it was 7.2 µg/mL (≈ 12.2 µM).
Regarding `CC1(C)S[C@@H]2[C@H](NC(=O)[C@H](N)c3ccccc3)C(=O)N2[C@H]1C(=O)O` [AMPICILLIN], the MIC in the assay on Bacillus subtilis and with Priestia megaterium was 25 µg/mL (≈ 71.5 µM) each time.
In the case of GENTAMICIN, the MIC in the assay on Escherichia coli came out at 2 µg/mL; in the assay with Pseudomonas sp., 8 µg/mL.
Turning to `C[C@@H]1[C@H](O)[C@@H](C)/C=C/C=C/C=C/C=C/C=C/C=C/C=C/[C@H](O[C@@H]2O[C@H](C)[C@@H](O)[C@H](N)[C@@H]2O)C[C@@H]2O[C@](O)(C[C@@H](O)C[C@@H](O)[C@H](O)CC[C@@H](O)C[C@@H](O)CC(=O)O[C@H]1C)C[C@H](O)[C@H]2C(=O)O` [AMPHOTERICIN B], the MIC in the assay with Candida albicans stood at 5 µg/mL (≈ 5.41 µM).
